Legend:
galium = experiment: Test C pre-/postemergence herbicide test; type: in vivo, Galium aparine; conditions: Preemergence; for Plant response rating (scale of 0 to 100), Galium: 250 g ai/ha
Method in brief: (§1)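 Pre-emergence: seeds sown in loam/sand blend and treated with compound in surfactant-containing solvent. Post-emergence: plants at 2–18 cm (1- to 4-leaf stage) in peat-based medium sprayed with the same formulation. Visual rating versus controls after 13–15 days in greenhouse, scale 0 (no effect) to 100 (complete control).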

velvetleaf = experiment: Test C pre-/postemergence herbicide test; type: in vivo, Abutilon theophrasti; conditions: Preemergence; for Plant response rating (scale of 0 to 100), Velvetleaf: 250 g ai/ha
Method in brief: as §1

foxtail, giant = experiment: Test C pre-/postemergence herbicide test; type: in vivo, Setaria faberii; conditions: Preemergence; for Plant response rating (scale of 0 to 100), Foxtail, Giant: 250 g ai/ha
Method in brief: as §1

pigweed [1] = experiment: Test A pre-/postemergence herbicide test; type: in vivo, Amaranthus retroflexus
Method in brief: (§2)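 Seeds in loam–sand blend received preemergence directed soil spray; separately, plants 2–10 cm at one- to two-leaf stage received postemergence spray, both with test chemicals in non-phytotoxic solvent with surfactant. After ~10 days in greenhouse, injury rated visually against untreated controls, 0 (no effect) to 100 (complete control).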

nutsedge, yellow = experiment: Test C pre-/postemergence herbicide test; type: in vivo, Cyperus esculentus; conditions: Preemergence; for Plant response rating (scale of 0 to 100), Nutsedge, Yellow: 250 g ai/ha
Method in brief: as §1

waterhemp = experiment: Test C pre-/postemergence herbicide test; type: in vivo, Amaranthus rudis; conditions: Preemergence; for Plant response rating (scale of 0 to 100), Waterhemp: 250 g ai/ha
Method in brief: as §1

oilseed rape = experiment: Test C pre-/postemergence herbicide test; type: in vivo, Brassica napus; conditions: Preemergence; for Plant response rating (scale of 0 to 100), Oilseed Rape: 250 g ai/ha
Method in brief: as §1

johnsongrass = experiment: Test C pre-/postemergence herbicide test; type: in vivo, Sorghum halepense; conditions: Preemergence; for Plant response rating (scale of 0 to 100), Johnsongrass: 250 g ai/ha
Method in brief: as §1

lambsquarters = experiment: Test C pre-/postemergence herbicide test; type: in vivo, Chenopodium album; conditions: Preemergence; for Plant response rating (scale of 0 to 100), Lambsquarters: 250 g ai/ha
Method in brief: as §1

pigweed [2] = experiment: Test C pre-/postemergence herbicide test; type: in vivo, Amaranthus retroflexus; conditions: Preemergence; for Plant response rating (scale of 0 to 100), Pigweed: 250 g ai/ha
Method in brief: as §1

corn = experiment: Test C pre-/postemergence herbicide test; type: in vivo, Zea mays; conditions: Preemergence; for Plant response rating (scale of 0 to 100), Corn: 250 g ai/ha
Method in brief: as §1

wheat = experiment: Test A pre-/postemergence herbicide test; type: in vivo, Triticum aestivum
Method in brief: as §2

[3] = 31 g ai/ha, scale 0 to 100, 0 is no effect and 100 is complete control
[4] = 62 g ai/ha, scale 0 to 100 (0 no effect, 100 complete control)
[5] = 125 g ai/ha, scale 0 to 100 (0 no effect, 100 complete control)
[6] = 125 g ai/ha, visual rating, 0 to 100 scale, 0 no effect, 100 complete control, approximately 10 days, preemergence
[7] = Postemergence, 125 g ai/ha, 0 to 100 scale, 0 is no effect, 100 is complete control
[8] = preemergence, 500 g ai/ha, 0 to 100 scale, 0 is no effect and 100 is complete control
[9] = Postemergence, 500 g ai/ha, 0 to 100 scale (0 no effect, 100 complete control)
[10] = Preemergence, 125 g ai/ha, 0 to 100 scale where 0 is no effect and 100 is complete control

Compound: O=C1NCC(c2cccc(C(F)(F)F)c2)C1C(=O)Nc1ccccc1Cl (racemic) [Compound 189]
- Galium plant response rating (galium; [3]): 0
- Galium plant response rating (galium; [4]): 0
- Plant response rating, Galium (galium; [5]): 80
- Plant response rating, Galium (galium; 16 g ai/ha, scale 0 to 100): 0
- Velvetleaf plant response rating (velvetleaf; [3]): 0
- Velvetleaf plant response rating (velvetleaf; [4]): 0
- Plant response rating, Velvetleaf (velvetleaf; [5]): 0
- Plant response rating, Velvetleaf (velvetleaf; 16 g ai/ha, scale 0 to 100): 0
- Foxtail, Giant plant response rating (foxtail, giant; [3]): 80
- Foxtail, Giant plant response rating (foxtail, giant; [4]): 90
- Plant response rating, Foxtail, Giant (foxtail, giant; [5]): 95
- Plant response rating, Foxtail, Giant (foxtail, giant; 16 g ai/ha, scale 0 to 100): 85
- Plant response rating, Pigweed (pigweed [1]; [6]): 0
- Plant response rating, Pigweed (pigweed [1]; [7]): 0
- Pigweed plant response rating (0 to 100 scale, 0 is no effect, 100 is complete control) (pigweed [1]; Postemergence, 500 g ai/ha): 0
- Plant response rating, Pigweed (pigweed [1]; [8]): 0
- Nutsedge, Yellow plant response rating (nutsedge, yellow; [3]): 0
- Nutsedge, Yellow plant response rating (nutsedge, yellow; [4]): 0
- Plant response rating, Nutsedge, Yellow (nutsedge, yellow; [5]): 0
- Plant response rating, Nutsedge, Yellow (nutsedge, yellow; 16 g ai/ha, scale 0 to 100): 0
- Waterhemp plant response rating (waterhemp; [3]): 0
- Waterhemp plant response rating (waterhemp; [4]): 5
- Plant response rating, Waterhemp (waterhemp; [5]): 0
- Plant response rating, Waterhemp (waterhemp; 16 g ai/ha, scale 0 to 100): 0
- Oilseed Rape plant response rating (oilseed rape; [3]): 0
- Oilseed Rape plant response rating (oilseed rape; [4]): 0
- Plant response rating, Oilseed Rape (oilseed rape; [5]): 20
- Plant response rating, Oilseed Rape (oilseed rape; 16 g ai/ha, scale 0 to 100): 0
- Johnsongrass plant response rating (johnsongrass; [3]): 0
- Johnsongrass plant response rating (johnsongrass; [4]): 0
- Plant response rating, Johnsongrass (johnsongrass; [5]): 15
- Plant response rating, Johnsongrass (johnsongrass; 16 g ai/ha, scale 0 to 100): 0
- Lambsquarters plant response rating (lambsquarters; [3]): 0
- Lambsquarters plant response rating (lambsquarters; [4]): 0
- Plant response rating, Lambsquarters (lambsquarters; [5]): 5
- Plant response rating, Lambsquarters (lambsquarters; 16 g ai/ha, scale 0 to 100): 0
- Pigweed plant response rating (pigweed [2]; [3]): 0
- Pigweed plant response rating (pigweed [2]; [4]): 0
- Plant response rating, Pigweed (pigweed [2]; [5]): 0
- Plant response rating, Pigweed (pigweed [2]; 16 g ai/ha, scale 0 to 100): 0
- Corn plant response rating (corn; [3]): 0
- Corn plant response rating (corn; [4]): 0
- Plant response rating, Corn (corn; [5]): 40
- Plant response rating, Corn (corn; 16 g ai/ha, scale 0 to 100): 0
- Plant response rating, Wheat (wheat; [6]): 0
- Plant response rating, Wheat (wheat; [7]): 0
- Wheat plant response rating (0 to 100 scale, 0 is no effect, 100 is complete control) (wheat; Postemergence, 500 g ai/ha): 0
- Plant response rating, Wheat (wheat; [8]): 20

Compound: O=C1NCC(c2cccc(C(F)(F)F)c2)C1C(=O)Nc1cccc(F)c1F (stereo not drawn) [Compound 241]
- Galium plant response rating (galium; [3]): 20
- Galium plant response rating (galium; [4]): 80
- Plant response rating, Galium (galium; [5]): 85
- Plant response rating (scale of 0 to 100), Galium (galium): 85
- Velvetleaf plant response rating (velvetleaf; [3]): 0
- Velvetleaf plant response rating (velvetleaf; [4]): 0
- Plant response rating, Velvetleaf (velvetleaf; [5]): 5
- Plant response rating (scale of 0 to 100), Velvetleaf (velvetleaf): 40
- Foxtail, Giant plant response rating (foxtail, giant; [3]): 90
- Foxtail, Giant plant response rating (foxtail, giant; [4]): 95
- Plant response rating, Foxtail, Giant (foxtail, giant; [5]): 95
- Plant response rating (scale of 0 to 100), Foxtail, Giant (foxtail, giant): 95
- Plant response rating, Pigweed (pigweed [1]; [7]): 0
- Plant response rating, Pigweed (pigweed [1]; [9]): 20
- Plant response rating, Pigweed (pigweed [1]; [10]): 0
- Plant response rating, Pigweed (pigweed [1]; [8]): 30
- Nutsedge, Yellow plant response rating (nutsedge, yellow; [3]): 0
- Nutsedge, Yellow plant response rating (nutsedge, yellow; [4]): 0
- Plant response rating, Nutsedge, Yellow (nutsedge, yellow; [5]): 0
- Plant response rating (scale of 0 to 100), Nutsedge, Yellow (nutsedge, yellow): 0
- Waterhemp plant response rating (waterhemp; [3]): 25
- Waterhemp plant response rating (waterhemp; [4]): 40
- Plant response rating, Waterhemp (waterhemp; [5]): 45
- Plant response rating (scale of 0 to 100), Waterhemp (waterhemp): 60
- Oilseed Rape plant response rating (oilseed rape; [3]): 0
- Oilseed Rape plant response rating (oilseed rape; [4]): 0
- Plant response rating, Oilseed Rape (oilseed rape; [5]): 70
- Plant response rating (scale of 0 to 100), Oilseed Rape (oilseed rape): 85
- Johnsongrass plant response rating (johnsongrass; [3]): 85
- Johnsongrass plant response rating (johnsongrass; [4]): 80
- Plant response rating, Johnsongrass (johnsongrass; [5]): 85
- Plant response rating (scale of 0 to 100), Johnsongrass (johnsongrass): 90
- Lambsquarters plant response rating (lambsquarters; [3]): 0
- Lambsquarters plant response rating (lambsquarters; [4]): 0
- Plant response rating, Lambsquarters (lambsquarters; [5]): 10
- Plant response rating (scale of 0 to 100), Lambsquarters (lambsquarters): 100
- Pigweed plant response rating (pigweed [2]; [3]): 0
- Pigweed plant response rating (pigweed [2]; [4]): 0
- Plant response rating, Pigweed (pigweed [2]; [5]): 25
- Plant response rating (scale of 0 to 100), Pigweed (pigweed [2]): 70
- Corn plant response rating (corn; [3]): 85
- Corn plant response rating (corn; [4]): 65
- Plant response rating, Corn (corn; [5]): 80
- Plant response rating (scale of 0 to 100), Corn (corn): 90
- Plant response rating, Wheat (wheat; [7]): 30
- Plant response rating, Wheat (wheat; [9]): 70
- Plant response rating, Wheat (wheat; [10]): 20
- Plant response rating, Wheat (wheat; [8]): 30

Compound: O=C1NCC(c2ccc(C(F)(F)F)nc2)C1C(=O)Nc1ccccc1F (racemic) [Compound 262]
- Galium plant response rating (galium; [3]): 0
- Galium plant response rating (galium; [4]): 40
- Plant response rating, Galium (galium; [5]): 60
- Plant response rating (scale of 0 to 100), Galium (galium): 85
- Velvetleaf plant response rating (velvetleaf; [3]): 0
- Velvetleaf plant response rating (velvetleaf; [4]): 0
- Plant response rating, Velvetleaf (velvetleaf; [5]): 0
- Plant response rating (scale of 0 to 100), Velvetleaf (velvetleaf): 0
- Foxtail, Giant plant response rating (foxtail, giant; [3]): 20
- Foxtail, Giant plant response rating (foxtail, giant; [4]): 70
- Plant response rating, Foxtail, Giant (foxtail, giant; [5]): 95
- Plant response rating (scale of 0 to 100), Foxtail, Giant (foxtail, giant): 95
- Plant response rating, Pigweed (pigweed [1]; [7]): 0
- Plant response rating, Pigweed (pigweed [1]; [9]): 0
- Plant response rating, Pigweed (pigweed [1]; [10]): 50
- Plant response rating, Pigweed (pigweed [1]; [8]): 70
- Nutsedge, Yellow plant response rating (nutsedge, yellow; [3]): 75
- Nutsedge, Yellow plant response rating (nutsedge, yellow; [4]): 0
- Plant response rating, Nutsedge, Yellow (nutsedge, yellow; [5]): 0
- Plant response rating (scale of 0 to 100), Nutsedge, Yellow (nutsedge, yellow): 0
- Waterhemp plant response rating (waterhemp; [3]): 0
- Waterhemp plant response rating (waterhemp; [4]): 50
- Plant response rating, Waterhemp (waterhemp; [5]): 60
- Plant response rating (scale of 0 to 100), Waterhemp (waterhemp): 50
- Oilseed Rape plant response rating (oilseed rape; [3]): 0
- Oilseed Rape plant response rating (oilseed rape; [4]): 35
- Plant response rating, Oilseed Rape (oilseed rape; [5]): 35
- Plant response rating (scale of 0 to 100), Oilseed Rape (oilseed rape): 70
- Johnsongrass plant response rating (johnsongrass; [3]): 0
- Johnsongrass plant response rating (johnsongrass; [4]): 0
- Plant response rating, Johnsongrass (johnsongrass; [5]): 0
- Plant response rating (scale of 0 to 100), Johnsongrass (johnsongrass): 0
- Lambsquarters plant response rating (lambsquarters; [3]): 100
- Lambsquarters plant response rating (lambsquarters; [4]): 70
- Plant response rating, Lambsquarters (lambsquarters; [5]): 80
- Plant response rating (scale of 0 to 100), Lambsquarters (lambsquarters): 100
- Pigweed plant response rating (pigweed [2]; [3]): 0
- Pigweed plant response rating (pigweed [2]; [4]): 0
- Plant response rating, Pigweed (pigweed [2]; [5]): 0
- Plant response rating (scale of 0 to 100), Pigweed (pigweed [2]): 5
- Corn plant response rating (corn; [3]): 0
- Corn plant response rating (corn; [4]): 0
- Plant response rating, Corn (corn; [5]): 10
- Plant response rating (scale of 0 to 100), Corn (corn): 10
- Plant response rating, Wheat (wheat; [7]): 0
- Plant response rating, Wheat (wheat; [9]): 0
- Plant response rating, Wheat (wheat; [10]): 0
- Plant response rating, Wheat (wheat; [8]): 0

Source: US10294202B2, “Pyrrolidinones as herbicides” (FMC Corporation, priority 2013, dated 2019)
